Converted amounts (≈) assume the structure as drawn.
Key:
[1] = tested on: Pseudomonas aeruginosae ATCC 47085; assay: MIC by agar dilution; format: cell-based, Pseudomonas aeruginosa; conditions: ATCC47085, 37 °C, 20 h, read-out: Minimum inhibitory concentration (MIC)
Protocol: (§1) The MICs of the synthesized compound were determined by agar dilution method according to the Clinical Laboratory and Standards Institute Guidelines (CLSI, 2015). Briefly, the tested strains were incubated overnight in tryptic soy broth (TSB) (Oxoid, United Kingdom) and then diluted in Muller–Hinton (MH) broth (Oxoid, United Kingdom) to turbidity approximating to the equivalent of 0.5 McFarland standard. The suspensions were further diluted with sterile saline (1:10) and standardized inoculums (approximately 10^4 CFU per spot) were spotted on the surfaces of MH agar (Oxoid, United Kingdom) plates containing different concentrations of tested compounds and a control plate. The MICs were the lowest concentrations that inhibit growth on the plates after incubation at 37 °C for 20 h.

[2] = tested on: Aspergillus niger ATCC 16404; assay: MIC by agar dilution (antifungal); format: cell-based; conditions: ATCC16404, read-out: Minimum inhibitory concentration (MIC)
Protocol: as §1

BxPC-3 = assay: SRB cellular proliferation assay; format: cell-based, human; conditions: Homo sapiens, BxPC-3 cells, mean ± SD (n = 3), read-out: IC50
Protocol: (§2) The pancreatic human cancer cell lines BxPC-3 and Panc-1, the human hepatocellular carcinoma (HepG-2), and the normal immortalized pancreatic cell line HPDE, that were used in this study, were obtained from the American Type Culture Collection (Rockville, USA). Cell lines were cultured and treated with the tested compounds or dimethyl sulfoxide (DMSO) as previously described. Cells were cultivated in DMEM medium (Invitrogen, Carlsbad, CA, USA), supplemented with streptomycin, penicillin and fetal bovine serum (FCS) (Invitrogen, Carlsbad, CA, USA). The sulforhodamine B (SRB) assay was employed to assess the anti-proliferative effects of tested compounds on cancer cells. Cell lines were incubated and regularly treated with DMSO or increasing doses of tested compounds for 48 h. The cells were fixed with 10% trichloroacetic acid and stained with SRB fluorescent dye for 30 min. Then, the bounded SRB dye to cellular proteins was dissolved in 10 mM Tris base after washing excess dye with 1% acetic acid. The absorbance was measured at 510 nm in a reader (Biotek, Winooski, VT, USA).

HepG-2 = assay: SRB cellular proliferation assay; format: cell-based, human; conditions: Homo sapiens, HepG2, HepG-2 cells, mean ± SD (n = 3), read-out: IC50
Protocol: as §2

Panc-1 = assay: SRB cellular proliferation assay; format: cell-based, human; conditions: Homo sapiens, Panc-1 cells, mean ± SD (n = 3), read-out: IC50
Protocol: as §2

[3] = tested on: P. aeruginosa ATCC 47,085; assay: Biofilm formation assay (crystal violet, light microscopy); format: cell-based, Pseudomonas aeruginosa; conditions: sub-MIC (½ MIC), crystal violet method
Protocol: Bacterial virulence is regulated via a quorum sensing (QS) system in an inducer/receptor manner. Diminishing bacterial virulence is an advantageous strategy to decrease the development of bacterial resistance. In this direction, anti-virulence and anti-QS activities have been explored in several studies as reviewed. The ability of P. aeruginosa or S. aureus to form biofilms was assayed in the absence or presence of tested compounds at sub-MIC. […] The experiment was conducted in triplicate and a one-way ANOVA test was employed to test the statistical significance using Graphpad Prism 8 software. The results were significant statistically where p values < 0.05. Moreover, microscopic visualization of biofilm under the effect of tested compounds was also performed by light microscopy. Representative images for the inhibitory effects on S. aureus and P. aeruginosa biofilm formation are shown (Figure 3C,D). The microscopic images show a marked reduction in both the thickness of and surface area covered by the biofilms in presence of the tested compound.
In order to evaluate the ability of the tested compounds to inhibit the biofilm formation, a strong biofilm forming P. aeruginosa ATCC 47,085 [47, 66] and S. aureus ATCC 6538 [67] strains were used. As described earlier, suspensions of tested strains were prepared from overnight cultures in TSB and their optical densities were adjusted to OD600 of 0.4 (1×10^8 CFU/mL). Aliquots of 10 μL of the suspensions were added to 1 mL amounts of fresh TSB with or without sub-MICs of tested compounds. […] The non-adherent cells were removed, the wells were washed with sterile PBS, and left to dry. The attached biofilm forming cells were fixed with methanol for 25 min and stained with 1% crystal violet for 30 min. The excess dye was washed out and the crystal violet staining adhered biofilm forming cells were eluted by glacial acetic acid (33%). The experiment was conducted in triplicate and the absorbance was measured at 590 nm. The absorbances of tested strains treated with different compounds were expressed as mean ± standard error of percentage change from untreated tested strains control. The percentages of biofilm inhibition were calculated employing the following formula: (absorbance of control—absorbance in presence of tested compounds)/absorbance of control.

S. aureus = assay: Assay of hemolytic activity; format: cell-based, Staphylococcus aureus; conditions: sub-MIC
Protocol: (§3) The anti-virulence effects of compounds 5, 7 and 10 on hemolytic activity of tested P. aeruginosa and S. aureus strains were assessed as described previously. Optically adjusted bacterial cultures treated or untreated with tested compounds at sub-MIC were centrifuged, and 0.5 mL of supernatants were mixed with fresh 0.8 mL 2% erythrocyte (obtained from experimental animals) suspension in saline, and incubated for 2 h at 37 °C. A complete hemolysis positive control was prepared by addition of sodium dodecyl sulphate (SDS) to erythrocyte suspension, and negative control was prepared by incubation of erythrocytes in LB broth under the same conditions. After centrifugation, the absorbances of the lysed erythrocytes were measured at 540 nm by Biotek spectrofluorometer (Biotek, Winooski, VT, USA). The experiment was performed in triplicate, and the hemolysis of tested compound treated cultures were expressed as mean ± standard error of percentages compared with those obtained from untreated control cultures using the formula: (absorbance in presence or absence of tested compounds—absorbance of negative control)/(absorbance of positive control—absorbance of negative control).

P. aeruginosa [4] = assay: Assay of hemolytic activity; format: cell-based, Pseudomonas aeruginosa; conditions: sub-MIC
Protocol: as §3

P. aeruginosa [5] = assay: Assay of protease production (casein substrate); format: cell-based, Pseudomonas aeruginosa; conditions: sub-MIC
Protocol: The effect of compounds 5, 7 and 10 on the production of protease was evaluated using casein substrate as described earlier. Briefly, overnight cultures of P. aeruginosa and S. aureus were cultivated in LB broth in the presence or absence of compounds 5, 7 and 10 at ½ MIC for 24 h at 37 °C. The supernatants were collected, mixed (1:1) with 0.05 M casein in phosphate buffer (2%) and NaOH (0.1 M) at pH 7.0, and incubated for 15 min at 37 °C. The reaction was stopped by adding 2 mL of 0.4 M trichloroacetic acid for 30 min at 25 °C. Any precipitates were removed, and the optical densities were detected at 660 nm. The assays were performed in triplicate and the obtained optical densities of tested strains treated with compounds 5, 7 and 10 were expressed as mean ± standard error of percentage change from untreated tested strains control (positive control) and LB (negative control). The protease inhibition percentages were calculated: (O.D control—O.D tested compounds)/O.D control.

SMILES | MIC [1] [µg/mL] | MIC [2] [µg/mL] | IC50 (BxPC-3) [µg/mL] | IC50 (HepG-2) [µg/mL] | IC50 (Panc-1) [µg/mL] | Inhibition of biofilm formation [3] | Hemolytic activity (S. aureus) | Hemolytic activity (P. aeruginosa [4]) | Production of protease (P. aeruginosa [5])
Cc1ccc(S(=O)(=O)Nc2ccccc2C2=N/C(=C/c3ccccc3)C(=O)O2)cc1 [Compound 9a, (E)-N-(2-(4-Benzylidene-5-oxo-4,5-dihydrooxazol-2-yl)phenyl)-4-methylbenzenesulfonamide] | 8 (≈ 19.1 µM) | 32 (≈ 76.5 µM) | 14.4 ± 0.73 (≈ 34.4 µM) | 11 ± 2.39 (≈ 26.2 µM) | 11.9 ± 0.76 (≈ 28.6 µM) | highest abilities to inhibit biofilm formation | significantly diminished the hemolytic activity | significantly diminished the hemolytic activity | significantly reduced the production of protease
COc1ccc(/C=C2/N=C(c3ccccc3NS(=O)(=O)c3ccc(C)cc3)OC2=O)cc1 [Compound 9b, (E)-N-(2-(4-(4-Methoxybenzylidene)-5-oxo-4,5-dihydrooxazol-2-yl)phenyl)-4-methylbenzenesulfonamide] | 4 (≈ 8.92 µM) | > 32 | 14.9 ± 4.19 (≈ 33.2 µM) | 8.53 ± 1.1 (≈ 19 µM) | 13.6 ± 1.16 (≈ 30.4 µM) | highest abilities to inhibit biofilm formation | significantly diminished the hemolytic activity | significantly diminished the hemolytic activity | significantly reduced the production of protease
Cc1ccc(S(=O)(=O)Nc2ccccc2C2=N/C(=C/c3ccc([N+](=O)[O-])cc3)C(=O)O2)cc1 [Compound 9f, (E)-4-Methyl-N-(2-(4-(4-nitrobenzylidene)-5-oxo-4,5-dihydrooxazol-2-yl)phenyl)benzenesulfonamide] | 4 (≈ 8.63 µM) | > 32 | 14.2 ± 1.87 (≈ 30.6 µM) | 6.39 ± 1.25 (≈ 13.8 µM) | 12.6 ± 1.2 (≈ 27.2 µM) | highest abilities to inhibit biofilm formation | significantly diminished the hemolytic activity | significantly diminished the hemolytic activity | significantly reduced the production of protease

Reference: article PMC8838850, “Synthesis, Antimicrobial, Anti-Virulence and Anticancer Evaluation of New 5(4H)-Oxazolone-Based Sulfonamides” (Molecules, 2022)
